Laboratory results taken from ChEMBL document CHEMBL4428103, “Potential therapeutic application of small molecule with sulfonamide for chondrogenic differentiation and articular cartilage repair” (Bioorg Med Chem Lett, 2016).
The source made the active and inactive calls. The calls are words filed in the database; no cut-off is given here.

Key:
[1] = organism: Homo sapiens; experiment: Chondrogenic activity in human ASC assessed as increase in aggrecan expression at 1 uM incubated for 11 days by sandwich ELISA relative to control; format: functional
[2] = organism: Homo sapiens; experiment: Chondrogenic activity in human ASC assessed as increase in aggrecan expression at 10 uM incubated for 11 days by sandwich ELISA relative to control; format: functional
[3] = organism: Homo sapiens; experiment: Chondrogenic activity in human ASC assessed as increase in aggrecan expression at 10 uM incubated for 11 days in presence of MEK inhibitor U0126 by sandwich ELISA relative to control; format: functional
[4] = organism: Rattus norvegicus; experiment: Upregulation of aggrecan expression in collagenase2-induced osteoarthritis rat model injected with 10 uM compound on day 7 and 21 by immunohistochemistry; format: functional, organism-based
[5] = organism: Rattus norvegicus; experiment: Upregulation of aggrecan expression in collagenase2-induced osteoarthritis rat model injected with 10 uM compound-treated human ASC on day 7 and 21 by immunohistochemistry; format: functional, organism-based
[6] = organism: Homo sapiens; experiment: Upregulation of ERK phosphorylation in human ASC at 0.1 to 1 uM by Western blot analysis; details: TDE = time-dependent effect
[7] = organism: Rattus norvegicus; experiment: Induction of cartilage repair in collagenase2-induced osteoarthritis rat model assessed as recovery of cartilage thickness injected with 10 uM compound-treated human ASC on day 7 and 21 by safranin O/fast green staining-based optical microscopic analysis; format: functional, organism-based
[8] = organism: Rattus norvegicus; experiment: Induction of cartilage repair in collagenase2-induced osteoarthritis rat model assessed as increase in proteoglycan content injected with 10 uM compound-treated human ASC + on day 7 and 21 by safranin O/fast green staining-based optical microscopic analysis; format: functional, organism-based
[9] = organism: Rattus norvegicus; experiment: Induction of cartilage repair in collagenase2-induced osteoarthritis rat model assessed as recovery of cartilage thickness at 10 uM on day 7 and 21 by safranin O/fast green staining-based optical microscopic analysis; format: functional, organism-based
[10] = organism: Homo sapiens; experiment: Induction of differentiation in human ASC after 11 days by alcian blue staining based analysis relative to control; format: functional
[11] = organism: Homo sapiens; experiment: Chondrogenic activity in human ASC assessed as increase in aggrecan expression incubated for 11 days by sandwich ELISA relative to control; format: functional

| Compound | Activity [1] | Activity [2] | also measured |
| --- | --- | --- | --- |
| O=S(=O)(NC1CCC(CCO)CC1)c1ccc2ccccc2c1 (configuration not stated) | inactive | inactive |  |
| O=S(=O)(NCCc1ccc(O)c(O)c1)c1ccc(-c2ccccc2)cc1 | inactive | inactive |  |
| O=S(=O)(Nc1ccc(O)cc1)c1cccc2cccnc12 |  |  | fold change (FC) [1]: 2; Activity [3]: inactive; Activity [4]: Active; Activity [5]: Active; Activity [6]: Tde; Activity [7]: Active; Activity [8]: Active; Activity [9]: Active; fold change (FC) [2]: 2; fold change (FC) [10]: 3; Activity [11]: Dose-dependent effect |
| O=[N+]([O-])c1cc(NS(=O)(=O)c2ccc3ccccc3c2)ccc1O | inactive | Active |  |
| CC(C)(C)c1ccc(S(=O)(=O)Nc2ccc(O)cc2F)cc1 | inactive |  |  |
| O=S(=O)(Nc1ccc(O)cc1)c1ccc2ccccc2c1 | inactive | inactive |  |
| O=S(=O)(Nc1ccc(O)cc1Cl)c1ccc2ccccc2c1 | inactive | Active |  |
| CC(C)(C)c1ccc(S(=O)(=O)Nc2cccc(O)c2)cc1 | inactive |  |  |
| Cc1ccc(S(=O)(=O)Nc2cccc3ccc(O)cc23)cc1 | inactive | Active |  |
| CC(C)(C)c1ccc(S(=O)(=O)Nc2ccc(O)cc2Cl)cc1 | inactive |  |  |
| Cc1ccc(S(=O)(=O)Nc2ccc(O)c3ccccc23)cc1 |  |  | fold change (FC) [1]: 2; fold change (FC) [2]: 2 |
| CC(C)(C)c1ccc(S(=O)(=O)Nc2ccc(O)c(F)c2)cc1 | inactive |  |  |
| O=S(=O)(Nc1ccc(O)cc1Cl)c1ccc(-c2ccccc2)cc1 | inactive |  |  |
| O=S(=O)(Nc1ccc(O)c(F)c1)c1ccc(-c2ccccc2)cc1 | inactive |  |  |
| CC(C)(C)c1ccc(S(=O)(=O)Nc2ccc(O)c(C(=O)O)c2)cc1 |  |  | fold change (FC) [1]: 2; fold change (FC) [2]: 2 |
| CCN(c1cc(O)ccc1C)S(=O)(=O)c1ccc(C(C)(C)C)cc1 | inactive | inactive |  |
| O=S(=O)(Nc1ccc(O)cc1F)c1ccc(-c2ccccc2)cc1 | inactive |  |  |
| O=S(=O)(Nc1ccc(O)c(F)c1)c1ccc2ccccc2c1 | inactive |  |  |
| O=S(=O)(Nc1cccc2ccc(O)cc12)c1cccc2cccnc12 |  |  | fold change (FC) [1]: 2; fold change (FC) [2]: 2 |
| O=S(=O)(NCCc1ccc(O)c(O)c1)c1ccc2ccccc2c1 | inactive | inactive |  |
| O=S(=O)(NC1CCC(CCO)CC1)c1ccc(-c2ccccc2)cc1 (configuration not stated) | inactive | inactive |  |
| CCN(c1cc(O)ccc1C)S(=O)(=O)c1ccc2ccccc2c1 | inactive | inactive |  |
| CC(C)(C)c1ccc(S(=O)(=O)NC2CCC(CCO)CC2)cc1 (configuration not stated) | inactive | inactive |  |
| CC(C)(C)c1ccc(S(=O)(=O)NCCc2ccc(O)c(O)c2)cc1 | inactive | inactive |  |
| O=S(=O)(Nc1ccc(O)cc1F)c1ccc2ccccc2c1 | inactive | Active |  |
| O=C(O)c1cc(NS(=O)(=O)c2cccc3cccnc23)ccc1O |  |  | fold change (FC) [1]: 2; fold change (FC) [2]: 2 |
| O=S(=O)(Nc1cccc2c(O)cccc12)c1ccc(-c2ccccc2)cc1 |  |  | fold change (FC) [1]: 2; fold change (FC) [2]: 2 |
| Cc1ccc(S(=O)(=O)Nc2cccc3c(O)cccc23)cc1 | inactive | Active |  |
